Results: US20230302036A1, “COMPOSITIONS FOR TREATMENT OF SPINAL MUSCULAR ATROPHY” (priority 2020, published 2023)
“Also recorded” adds a separate entry of the source. Oligonucleotides are written 5' to 3', each unit as a sugar letter and its base; * is a phosphorothioate linkage, no mark a phosphodiester; rarer units and linkages stand in square brackets, end groups in braces. Plain capitals give the bases only. e = 2'-O-(2-methoxyethyl) (MOE); [5mC] = 5-methylcytosine

How the values were obtained:
[1] = system: endogenous SMN2 E7 alternative splicing; test: SMN2 E7 alternative splicing by radioactive RT-PCR in HEK293T cells; format: cell-based, human; conditions: HEK293T
Experimental: Alternative splicing was analyzed by radioactive RT-PCR followed by native polyacrylamide gel electrophoresis and autoradiography. Bars display means ± SD of percentage of the radioactivity in the FL band over the sum of radioactivity measurements in the FL and ΔE7 bands of at least three independent transfection experiments. A two-tailed Student’s t test was used to determine the significance between events. (FIG. 1A) HEK293T cells were co-transfected with the SMN2 minigene and expression vectors for WT^res and hC4 Pol II, followed by addition of α-amanitin. (FIG. 1B) Effect of camptothecin (CPT) on SMN2 E7 alternative splicing. HEK293T cells were incubated for at least 6 hours with 3 µM CPT. Combined effects on endogenous SMN2 E7 alternative splicing of transfection with 25 nM ASO1 and treatment with 3 µM TSA for 24 hr (FIG. 1C), 10 mM VPA for 24 hr (FIG. 1D), or 25 µM 5-AZA for 48 hr (FIG. 1E). Combined effects on HEK293T endogenous SMN2 E7 alternative splicing of transfection with 25 nM each of si-hnRNPA1 and si-hnRNPA2, and treatment with 3 µM TSA for 24 hr (FIG. 1F) or 10 mM VPA for 24 hr (FIG. 1G). […]
HEK293T, HeLa, and SMA type I homozygous and carrier fibroblasts 3813 and 3814 (Coriell Cell Repositories, Camden, New Jersey, United States) were grown in Dulbecco’s modified Eagle’s medium (DMEM) containing 4.5 g of glucose and 10% fetal bovine serum (Gibco) at 37° C. Cells were plated at a density of 2×10^5 cells per well in 12-well plates 24 hr before transfection. siRNA (25 nM), plasmid (500 ng), or ASO (25 nM) transfections were performed 24 hr after cells were plated, using 3 µl of Lipofectamine 2000 (Thermo Fisher Scientific) per well in 12-well plates. 24-48 h later, cells were treated with Trichostatin A (Sigma, T8552), Valproic Acid (Sigma, P4543), 5-Azacytidine (Sigma, A2385) or vehicle for the indicated time, and harvested for downstream procedures. […]

[2] = system: H3K9me2 along the SMN2 gene; test: ChIP-qPCR of H3K9me2 distribution along the SMN2 gene in HEK293T cells; format: cell-based, human
Experimental: (§1) H3K9me2 (FIG. 2B), total RNAPII (FIG. 2C), P-Ser5 RNAPII (FIG. 2D), and P-Ser2 RNAPII (FIG. 2E) distribution along the SMN2 gene, assessed by ChIP-qPCR in HEK293T cells transfected with the scramble oligo (CTRL) or ASO1 and treated with 10 mM VPA. Four independent immunoprecipitation replicates were conducted per experiment. Data are represented as mean ± S.D. (n = 4, *p < 0.05, two-tailed Student’s t test).
(§2) Total distribution of H3K9me2 (FIG. 3C), total RNAPII (FIG. 3D), P-Ser5 RNAPII (FIG. 3E), and P-Ser2 RNAPII (FIG. 3F) along the SMN2 gene is shown. This distribution was assessed by ChIP-qPCR in HEK293T cells transfected with the scramble oligo (CTRL) or ASO2 and treated with 10 mM VPA. Four independent immunoprecipitation replicates were conducted per experiment. Data are represented as mean ± S.D. (n = 4, *p < 0.05, two-tailed Student’s t test).
Approximately 2×10^6 HEK293T cells per sample were treated for 10 min in 1% (v/v) formaldehyde at room temperature to crosslink protein-DNA complexes. Crosslinking was stopped with glycine at a final concentration of 125 mM. Cells were washed twice with cold PBS and swelled on ice for 10 min in 25 mM HEPES pH 8, 1.5 mM MgCl2, 10 mM KCl, 0.1% NP-40, 1 mM DTT and 1× protease inhibitor cocktail set III (Calbiochem). Following Dounce homogenization, the nuclei were collected and resuspended in 1 ml sonication buffer (50 mM HEPES pH 8, 140 mM NaCl, 1 mM EDTA, 0.1% sodium deoxycholate, 0.1% SDS and 1× protease inhibitor cocktail). DNA was sonicated in an ultrasonic bath (Bioruptor Diagenode) to an average length of 200-500 bp. After addition of 1% (v/v) Triton X-100, samples were centrifuged at 15,000 ×g. Supernatants were immunoprecipitated O/N with 40 µl of pre-coated anti-IgG magnetic beads (Dynabeads M-280, Invitrogen) previously incubated with the antibody of interest for 6 hr at 4° C. The antibodies used were: rabbit anti-H3 (2 µg, Abcam ab1791), mouse anti-H3K9me2 (4 µg, Abcam ab1220), rabbit anti H3K9me3 (4 µg, Abcam ab8898), rabbit anti H3K9Ac (2 µg, Abcam ab4441), rabbit anti Rpb1 NTD (2 µg, Cell Signaling, D8L4Y), rabbit Phospho-Rpb1 CTD Ser2 (2 µg, Cell Signaling, E1Z3G), rabbit Phospho-Rpb1 CTD Ser5 (2 µg, Cell Signaling, D9N5I). Control immunoprecipitations were performed with rabbit IgG (1 µg, Abcam ab171870). […] Immunoprecipitated DNA (1.5 µl) and serial dilutions of the 10% input DNA (1:4, 1:20, 1: 100, and 1:500) were analyzed by SYBR-Green real-time qPCR.

[3] = system: RNAPII (total, P-Ser5, P-Ser2) along the SMN2 gene; test: ChIP-qPCR of RNAPII distribution along the SMN2 gene in HEK293T cells; format: cell-based, human
Experimental: as §1, §2
Approximately 2×10^6 HEK293T cells per sample were treated for 10 min in 1% (v/v) formaldehyde at room temperature to crosslink protein-DNA complexes. Crosslinking was stopped with glycine at a final concentration of 125 mM. Cells were washed twice with cold PBS and swelled on ice for 10 min in 25 mM HEPES pH 8, 1.5 mM MgCl2, 10 mM KCl, 0.1% NP-40, 1 mM DTT and 1× protease inhibitor cocktail set III (Calbiochem). Following Dounce homogenization, the nuclei were collected and resuspended in 1 ml sonication buffer (50 mM HEPES pH 8, 140 mM NaCl, 1 mM EDTA, 0.1% sodium deoxycholate, 0.1% SDS and 1× protease inhibitor cocktail). DNA was sonicated in an ultrasonic bath (Bioruptor Diagenode) to an average length of 200-500 bp. After addition of 1% (v/v) Triton X-100, samples were centrifuged at 15,000 ×g. Supernatants were immunoprecipitated O/N with 40 µl of pre-coated anti-IgG magnetic beads (Dynabeads M-280, Invitrogen) previously incubated with the antibody of interest for 6 hr at 4° C. The antibodies used were: rabbit anti-H3 (2 µg, Abcam ab1791), mouse anti-H3K9me2 (4 µg, Abcam ab1220), rabbit anti H3K9me3 (4 µg, Abcam ab8898), rabbit anti H3K9Ac (2 µg, Abcam ab4441), rabbit anti Rpb1 NTD (2 µg, Cell Signaling, D8L4Y), rabbit Phospho-Rpb1 CTD Ser2 (2 µg, Cell Signaling, E1Z3G), rabbit Phospho-Rpb1 CTD Ser5 (2 µg, Cell Signaling, D9N5I). Control immunoprecipitations were performed with rabbit IgG (1 µg, Abcam ab171870). Beads were washed sequentially for 5 min each in Low-salt (20 mM Tris-HCl pH 8, 150 mM NaCl, 2 mM EDTA, 1% Triton X-100, 0.1% SDS), High-Salt (20 mM Tris-HCl pH 8, 500 mM NaCl, 2 mM EDTA, 1% Triton X-100, 0.1% SDS) and LiCl buffer (10 mM Tris pH 8.0, 1 mM EDTA, 250 mM LiCl, 1% NP-40, 1% Na-deoxycholate) for 5 min at 4° C. and then twice in TE 1x for 2 min at room temperature. Beads were eluted in 1% SDS and 100 mM NaHCO3 buffer for 15 min at 65° C. and crosslinking was reversed for 6 hr after addition of NaCl to a final concentration of 200 mM. Chromatin was precipitated with ethanol overnight, treated with 20 µg proteinase K, and purified by phenol-chloroform extraction. Immunoprecipitated DNA (1.5 µl) and serial dilutions of the 10% input DNA (1:4, 1:20, 1: 100, and 1:500) were analyzed by SYBR-Green real-time qPCR.

[4] = system: SMA mice (Smn-/-; SMN2 2TG/0); test: Kaplan-Meier survival of severe SMA mice; format: in vivo, mouse; conditions: s.c. ASO1 at P0 and P1 and/or one s.c. VPA 10 µg/g
Experimental: Kaplan-Meier survival plot (FIG. 4A) and growth curves (FIG. 4B) of SMA mice, following subcutaneous administration at P0 and P1 of 16.8 µg ASO1 (n=18) or saline (n=14), one subcutaneous dose before P3 of 10 µg per g of body weight VPA (n=12), or both treatments together (n=20). ASO1-treated Smn^+/- heterozygote littermates (n=15) served as controls. Scramble (Ctrl) (n=12, 40 trials), VPA (n=13, 50 trials), ASO1 (n=11, 50 trials), ASO1 + VPA (n=17, 68 trials), and untreated heterozygotes (n=12, 36 trials). Statistical significance was analyzed by two-way repeated measures ANOVA. P < 0.05 was considered statistically significant; data are represented as mean + SD. In the righting-reflex test, the time it took a mouse to right itself […] on a flat surface was measured. In the grip-strength test, the angle at which the pups fell from a tablet with a rough to which they held on by their forelimbs was measured.
FIGS. 7A-H show ASO1 and TSA combined treatment in mice. Kaplan-Meier survival plot (FIG. 7A) and growth curves (FIG. 7B) of SMA mice after subcutaneous administration at P0 and P1 of 16.8 µg ASO1 (n=20) or vehicle (n=12), one subcutaneous dose of 10 µg per g of body weight TSA (n=15) at P2, or both treatments together (n=24), are shown. ASO1-treated heterozygotes (n=18) served as controls. Statistical significance was analyzed by two-way repeated measures ANOVA. P < 0.05 was considered statistically significant; data are represented as mean + SD.
All mouse protocols were in accordance with Cold Spring Harbor Laboratory’s Institutional Animal Care and Use Committee guidelines. The mild Hung mouse model (Smn^-^/-; SMN2^2TG/2TG) was the strain FVB.Cg-Smn1^tm1Hung Tg(SMN2)2^Hung/J, purchased from Jackson Laboratory (stock no. 005058). The severe SMA model (Smn^-/-; SMN2^2TG/0) was generated as previously described (Hua et al., Nature 478, 123-126, 2011).
Oligonucleotide solutions in saline were injected subcutaneously into the upper back at P0 and P1 with a […] and 33-gauge custom removable needle (Hamilton) as described (Hua et al., Nature 478, 123-126, 2011). All drugs were injected subcutaneously before P3, contralateral to the oligonucleotide-injection site, with TSA (10 mg/kg) or VPA (10 mg/kg) or vehicle. Mouse tissues and organs, including liver, thigh muscles, kidney, and spinal cord, were snap-frozen in liquid N2 and stored at -70° C.
Introduction of a human SMN2 transgene in an Smn^-/- background rescues embryonic lethality, displaying a range of phenotypes, depending on the SMN2 copy number (Hsieh-Li et al., Nat. Genet. 24, 66-70, 2000; Monani et al., Hum Mol Genet. 12; 333-339, 2000). […]

SMA mice = test: Grip-strength test of P7 SMA mice; format: in vivo, mouse; conditions: untreated mutants ~35°
Experimental: ASO1-treated Smn^+/- heterozygote littermates (n=15) served as controls. Scramble (Ctrl) (n=12, 40 trials), VPA (n=13, 50 trials), ASO1 (n=11, 50 trials), ASO1 + VPA (n=17, 68 trials), and untreated heterozygotes (n=12, 36 trials). Statistical significance was analyzed by two-way repeated measures ANOVA. P < 0.05 was considered statistically significant; data are represented as mean + SD. […] In the grip-strength test, the angle at which the pups fell from a tablet with a rough to which they held on by their forelimbs was measured.
In the grip-strength test, the angle at which the pups fall from a tablet with a rough surface to which they hold on by their forelimbs was measured.

Compound | effect of hnRNPA1/A2 depletion in promoting E7 inclusion upon HDAC inhibitor treatment ([1]; 25 nM each si-hnRNPA1 and si-hnRNPA2, no ASO1, 3 µM TSA or 10 mM VPA 24 hr) | effect of VPA on ASO1-promoted H3K9me2 ([2]; HEK293T transfected with ASO1 and treated with 10 mM VPA) | H3K9me2 marks along the SMN2 gene ([2]; HEK293T, ASO transfection or 10 mM VPA) | RNAPII peak (total, P-Ser5, P-Ser2) in ASO1-transfected cells additionally treated with VPA ([3]; ASO1 plus 10 mM VPA) | roadblocks to elongation in ASO2-transfected cells treated with VPA ([3]; ASO2 plus 10 mM VPA) | survival (in words) [4] | grip strength, inclination angle at which pups fall (SMA mice) | effect on SMN2 E7 inclusion, agent alone ([1]; 25 nM ASO, 3 µM TSA 24 hr, 25 µM 5-AZA 48 hr, 3 µM CPT) | H3K9 dimethylation, peak increase at the promoter and the alternative E7 areas ([2]; HEK293T transfected with ASO1 vs scramble oligo) | P-Ser2 RNAPII density ([3]; ASO transfection vs scramble) | P-Ser5 RNAPII density ([3]; ASO transfection vs scramble) | total RNAPII density ([3]; ASO transfection vs scramble) | median survival [4] | mice still alive at P50 [4]
CCCC(CCC)C(=O)O [VPA, valproic acid] | stronger | completely abolished the ASO1 effect | reduced the H3K9me2 marks relative to the control | abolished | abolished | died before P10; also recorded: lack of an effect per se | ~ 30 ° |  |  |  |  |  |  | 
ASO1: 5′-ATTCACTTTCATAATGCTGG-3′ 2′-O-methoxyethyl-modified oligonucleotide with phosphorothioate backbone and all 5-methyl cytosines; nusinersen variant with 2-nucleotide extension (antisense eA*eT*eT*e[5mC]*eA*e[5mC]*eT*eT*eT*e[5mC]*eA*eT*eA*eA*eT*eG*e[5mC]*eT*eG*eG) |  |  |  |  |  | significantly extended | ~ 45 ° | promoted inclusion | 8 fold | greatly increased | greatly increased | greatly increased | ~ 20 days | 15%
